Legend:
[1] = molecular target: T1, human PPARγ-full length (Homo sapiens, UniProt P37231); test: Surface plasmon resonance, full-length hPPARγ; assay type: binding; settings: SPR, steady-state affinity, 25 °C; read-out: equilibrium dissociation constant (KD) for hPPARγ
T1 construct: human PPARγ-full length (Active Motif, USA); purchased Active Motif
T1 sequence (P37231 1-505): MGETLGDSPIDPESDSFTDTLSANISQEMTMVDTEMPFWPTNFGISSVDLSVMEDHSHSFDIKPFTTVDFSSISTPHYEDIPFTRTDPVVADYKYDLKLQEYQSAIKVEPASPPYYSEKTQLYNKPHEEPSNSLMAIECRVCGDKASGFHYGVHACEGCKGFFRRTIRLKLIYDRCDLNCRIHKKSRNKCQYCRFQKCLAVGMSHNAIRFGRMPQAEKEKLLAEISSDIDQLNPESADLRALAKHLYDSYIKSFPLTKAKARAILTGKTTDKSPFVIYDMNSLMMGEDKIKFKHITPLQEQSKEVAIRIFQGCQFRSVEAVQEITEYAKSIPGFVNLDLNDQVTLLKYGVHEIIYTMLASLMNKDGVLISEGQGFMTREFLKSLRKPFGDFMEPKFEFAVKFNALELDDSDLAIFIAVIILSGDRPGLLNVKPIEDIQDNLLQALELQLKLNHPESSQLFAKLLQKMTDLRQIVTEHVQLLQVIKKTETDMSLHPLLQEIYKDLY
Experimental: Prepared human PPARγ-LBD and human PPARγ-full length (Active Motif, USA) were immobilized onto a CM5 sensor chip using amine coupling. Briefly, the protein was diluted to 50 μg/mL in immobilization buffer and covalently attached to the CM5 chip via an Amine Coupling Kit (Cytiva, USA), following the manufacturer's instructions. A channel without immobilized protein was used as a blank control. The positive control, pioglitazone, and the test molecule, GlcCer, were both diluted in running buffer (PBS containing 5% (v/v) DMSO, 3 mM EDTA, and 0.05% (v/v) surfactant P20, pH 7.4). Gradient concentrations of GlcCer were injected over both channels at a flow rate of 30 μL/min, with an association time and dissociation time of 85 s each.

[2] = molecular target: T2, human PPARγ AF1 domain (Homo sapiens, UniProt P37231); test: Surface plasmon resonance, PPARγ AF1 domain; assay type: binding; settings: SPR
T2 sequence (P37231 31-135 limits assumed): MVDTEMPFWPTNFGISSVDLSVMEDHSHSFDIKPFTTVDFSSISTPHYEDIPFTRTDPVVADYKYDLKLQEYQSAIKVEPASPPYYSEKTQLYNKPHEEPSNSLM

[3] = tested on: T3, PPARγ-LBD; test: Bio-layer interferometry, PPARγ LBD; assay type: binding, human; settings: biolayer interferometry, Figure S7D, E
T3 construct: human PPARγ-LBD (residues 223-505); 6xHis; made in house; host or cells: E. coli BL21 (DE3)
Experimental: The bio-layer interferometry assay was performed at 30 °C on the Octet RED96 System (ForteBio, USA) with PBS as the running buffer. Purified PPARγ-LBD were biotinylated using the EZ-Link Sulfo-NHS-LC-Biotinylation Kit (Thermo Fisher Scientific, USA) according to the manufacturer's instructions. The biotinylated PPARγ was then immobilized onto SSA Biosensors (ForteBio, USA), pre-equilibrated in the running buffer. The biosensors were incubated with various concentrations of the GlcCer or pioglitazone, followed by dissociation. The data were analyzed and the binding parameters were determined using the software supplied by the manufacturer.

[4] = tested on: T4, PPARγ; test: PPARγ mRNA, protein and transcriptional activity in dorsal striatum of CRS-induced mice; assay type: in vivo; settings: intra-dorsal striatum pioglitazone, GlcCer or combination
T4 construct: from tissue; host or cells: mouse dorsal striatum
Source text: Dorsal striatal tissues were processed in accordance with the RNA isolation kit's instructions (RC102/RC112; Vazyme Biotech Co.,Ltd), mRNA was reverse transcribed using HiScript® III All-in-one RT SuperMix (Vazyme Biotech Co.,Ltd), and cDNA was amplified using SYBR Green (Vazyme Biotech Co.,Ltd). The 2^-ΔΔCt method was used to analyze gene expression, and the relative level of the target gene was normalized to Gapdh. The primer sequences can be found in Supplemental materials Table S1.
Brain tissues were cut into small pieces and then centrifuged at 13,000 g for 15 min at 4 °C. Supernatants were collected, and proteins concentrations were determined by BCA assay. Samples were denatured at 95 °C for 5 min and subsequently stored at -80 °C for further use. Protein samples were loaded onto 10% SDS-PAGE and transferred on PVDF membranes. After being blocked with 5% nonfat dry milk in Tris-buffered saline with 0.1% Tween-20 for 1.5 h, the PVDF membranes were incubated with corresponding primary antibodies overnight at 4 °C. Membranes were then incubated with HRP-conjugated secondary antibodies for 1 h at room temperature and measured with chemiluminescence imaging system (ChemiScope; Clinx, China).
Nuclear extracts were prepared from N2a cells using a nuclear extraction kit according to the manufacturer protocol. The binding reaction between PPARγ and PPRE was carried out at 4°C for 16 h using 3 μg of nuclear extracts. The binding activity between PPARγ and PPRE was indicated by the change of optical density (OD) at 405 nm, and an enzyme reaction was measured by HRP-conjugated antibody in complex of PPRE/ PPARγ/antibody.

[5] = tested on: D2-Pparg^f/f mice; test: Behavioral tests in D2-Pparg f/f mice after intra-dorsal striatal microinfusion; assay type: in vivo; settings: microinfusion of GlcCer
Experimental: For intracranial injection, mice were surgically implanted with sterilized guide cannulae in dorsal striatum. Intra-dorsal striatal injection of PDMP (100 μM, 1 μL/injection), pioglitazone (100 μM, 1 μL/injection), UNC (10 μM, 1 μL/injection) was performed 30 min before behavioral test. Mice were intraperitoneally injected with CNO (1 mg/kg/d) before behavioral test.
Elevated plus maze test (EPMT).
Light-dark Transition test (LDT).
Sucrose preference test (SPT).
Forced swimming test (FST).

[6] = tested on: aged mice; settings: oral administration, ref [35]; cited from earlier work
[7] = tested on: human PPARγ-LBD; test: Surface plasmon resonance, PPARγ LBD; settings: Figure S7B, C
Experimental: Prepared human PPARγ-LBD and human PPARγ-full length (Active Motif, USA) were immobilized onto a CM5 sensor chip using amine coupling. Briefly, the protein was diluted to 50 μg/mL in immobilization buffer and covalently attached to the CM5 chip via an Amine Coupling Kit (Cytiva, USA), following the manufacturer's instructions. A channel without immobilized protein was used as a blank control. […] Gradient concentrations of GlcCer were injected over both channels at a flow rate of 30 μL/min, with an association time and dissociation time of 85 s each.

Glucosylceramide [GlcCer]
Kd [1]: 36 ± 2 nM
Kd [2]: 29 ± 3 nM
binding affinity for the LBD (BLI) [3]: minimal binding affinity
PPARγ activity in the dorsal striatum [4]: significantly enhanced
PPARγ mRNA or protein expression [4]: neither pioglitazone, GlcCer, nor their combination altered
depression-like behaviors [5]: failed to alleviate
neuroinflammation and memory deficits [6]: alleviate
binding affinity for the LBD (SPR) [7]: minimal binding affinity

From publication PMC12775823, “Glucosylceramide regulates depression through activating peroxisome proliferator-activated receptor gamma in dorsal striatum” (Theranostics, 2026)
